Test results reported in US7306928B2, “Homogenous assay for enzymatic activity” (Pierce Biotechnology, Inc., priority 2002, dated 2007).

What was measured:
PP2A Phosphatase = PP2A Phosphatase (Homo sapiens, UniProt P67775); assay: Okadaic acid PP2A phosphatase inhibition, Fe(III) fluorescence quench assay; format: biochemical; conditions: PP2A 22 milli Units, 30 μM Lissamine Rhodamine phospho Kemptide, 60 minutes, 96-well; read-out: calculated IC50
Text: Okadaic Acid, another phosphatase inhibitor, solubilized in DMSO, was titrated in triplicate in phosphatase dilution buffer over 24 wells in white 96-well polystyrene COSTAR plate. […] The results are illustrated in FIG. 10.

[1] = molecular target: PKA (protein kinase A) catalytic unit, Promega; assay: cell-based or functional assay

PP2A Phosphatase, sequence (P67775 whole entry): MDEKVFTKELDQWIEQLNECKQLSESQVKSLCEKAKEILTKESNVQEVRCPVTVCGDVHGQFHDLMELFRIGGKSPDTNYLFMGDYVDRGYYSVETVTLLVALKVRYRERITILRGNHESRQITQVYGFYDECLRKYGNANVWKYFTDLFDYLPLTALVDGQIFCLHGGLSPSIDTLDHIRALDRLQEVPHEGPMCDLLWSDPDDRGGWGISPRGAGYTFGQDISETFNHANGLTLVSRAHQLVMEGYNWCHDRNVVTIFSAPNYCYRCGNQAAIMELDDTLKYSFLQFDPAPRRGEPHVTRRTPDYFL

| IC50 of inhibition of PKA kinase activity (phosphorylation of Lissamine Rhodamine-labeled Kemptide, Fe(III) fluorescence quench readout) [1] | Molecule | IC50 (PP2A Phosphatase) |
| --- | --- | --- |
| – | C=C1[C@@H](O)[C@@H]2O[C@]3(CC[C@H](/C=C/[C@@H](C)[C@@H]4CC(C)=C[C@@]5(O[C@H](C[C@@](C)(O)C(=O)O)CC[C@H]5O)O4)O3)CC[C@H]2O[C@@H]1[C@@H](O)C[C@H](C)[C@H]1O[C@@]2(CCCCO2)CC[C@H]1C [Okadaic Acid] | 1.5 nM |
| 2.6 nM | PKI, a known synthetic peptide inhibitor of PKA | – |
